Patent publication US11136317B2, “NADPH oxidase 4 inhibitors” (ACTELION PHARMACEUTICALS LTD, priority 2015, dated 2021)

target: T1, human NOX4 (Homo sapiens, UniProt Q9NPH5); test: Amplex Red activity assay (cellular H2O2 formation in hNOX4 T-REx-293 cells); type: cell-based; details: tet-induced 24 h, extracellular H2O2 by Amplex Red, 60 min 25° C., geometric mean if determined several times
T1 construct: The full-length human NOX4 (NM_016931.3) transcript was cloned; expressed in transfected cells
T1 sequence (Q9NPH5 1-578): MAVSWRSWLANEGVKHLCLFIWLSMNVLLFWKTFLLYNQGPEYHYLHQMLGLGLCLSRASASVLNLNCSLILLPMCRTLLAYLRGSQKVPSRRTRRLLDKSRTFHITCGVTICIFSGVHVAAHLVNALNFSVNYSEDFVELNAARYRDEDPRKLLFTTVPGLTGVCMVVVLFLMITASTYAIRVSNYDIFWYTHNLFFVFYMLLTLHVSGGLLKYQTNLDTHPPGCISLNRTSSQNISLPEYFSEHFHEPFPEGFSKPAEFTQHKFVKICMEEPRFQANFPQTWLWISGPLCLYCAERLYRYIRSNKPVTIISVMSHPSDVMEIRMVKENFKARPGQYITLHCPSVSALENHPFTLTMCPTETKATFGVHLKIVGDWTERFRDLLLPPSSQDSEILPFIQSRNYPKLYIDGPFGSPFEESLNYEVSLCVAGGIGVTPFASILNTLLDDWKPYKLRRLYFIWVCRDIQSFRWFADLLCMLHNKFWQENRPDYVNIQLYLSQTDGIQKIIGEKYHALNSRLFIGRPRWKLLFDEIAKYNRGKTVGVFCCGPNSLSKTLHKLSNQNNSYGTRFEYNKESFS
T1 sequence (P13498 1-195 partner): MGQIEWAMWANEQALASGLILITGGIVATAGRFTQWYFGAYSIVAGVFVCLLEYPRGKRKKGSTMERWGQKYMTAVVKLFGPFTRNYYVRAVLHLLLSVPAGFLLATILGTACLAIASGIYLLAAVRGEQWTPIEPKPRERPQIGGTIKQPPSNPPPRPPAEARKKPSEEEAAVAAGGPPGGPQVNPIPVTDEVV
Experimental: The nucleotide sequence and the amino acid sequence for the human NOX4 (Entrez Gene ID 50507) is known in the art and are published. The potency and efficacy of the compounds of Formula (I) are assessed for their potential to inhibit the formation of ROS in a cellular assay.
The full-length human NOX4 (NM_016931.3) transcript was cloned into the pDONR™221 vector (Life Technologies™) in order to generate, by site-specific integration according to the recommendation of the manufacturer (Life Technologies™), a recombinant pJTI™ R4 DEST CMV-TO vector containing the NOX4 coding information controlled by tetracycline (tet) responsive tet-on cytomegalovirus promoter (hNOX4 pDEST).
Modified human embryonic kidney cells overexpressing a tet receptor (Jump-In™ T-REx™ HEK293; Life Technologies™) were transfected with the NOX4-containing tet-on vector (hNOX4 pDEST) to generate a stable recombinant cell pool (hNOX4 T-REx-293). hNOX4 T-REx-293 cells were cultured in DMEM containing 4.5 g/L glucose supplemented with 10% fetal calf serum, penicillin (100 U/mL), streptomycin (100 μg/mL), geneticin (1 mg/mL), and blasticidin (5 μg/mL) at 37° C. in air with 5% CO2. Human Nox4 expression was induced with tet (1 μg/mL) for 24 h and extracellular H2O2 was quantified using the Amplex Red reagent (Life Technologies™).
Compounds were prepared as 10 mM stock solution in DMSO vehicle, then diluted in 384-well plates using DMSO followed by a transfer of the dilutions into the assay plate. As a control, diphenylene iodonium was included at a final concentration of 10 μM. Compounds were tested at 10 concentrations in the range from 50 μM highest to 100 nM lowest.
Cellular H2O2 formation was measured using the Amplex Red reagent. […] Cells were seeded into 384-well clear bottom plates at a density of 20 000 cells per well in presence or absence of compounds. […] All wells contained 1.25% of DMSO. The plates were kept at 25° C. for 60 min. The amount of produced resorufin was detected with the Synergy™ Mx microplate reader (BioTek) with excitation and emission wavelengths set to 550 nm and 600 nm, respectively. Fluorescence was measured for each well and the fluorescence at 600 nm wavelength was compared to the fluorescence of the vehicle in place of compound. Inhibitory activities of example compounds were determined by calculating the IC50 value (the concentration of compound needed to inhibit 50% of the enzyme activity). The calculated IC50 values may fluctuate depending on the daily cellular assay performance. Fluctuations of this kind are known to those skilled in the art.

Compound	IC50 [µM]
O=C(Nc1ccc2oc(N3CCCCC34COC4)nc2c1)c1ccc2c(c1)CCO2 [Example 26, 2,3-Dihydro-benzofuran-5-carboxylic acid [2-(2-oxa-5-aza-spiro[3.5]non-5-yl)-benzooxazol-5-yl]-amide]	1.49
O=C(Nc1ccc2oc(N3CCC4(CCO4)CC3)nc2c1)c1ccc2c(c1)CCO2 [Example 27, 2,3-Dihydro-benzofuran-5-carboxylic acid [2-(1-oxa-7-aza-spiro[3.5]non-7-yl)-benzooxazol-5-yl]-amide]	0.729
O=C(Nc1ccc2oc(N3CCC4(CCCO4)CC3)nc2c1)c1ccc2c(c1)CCO2 [Example 29, 2,3-Dihydro-benzofuran-5-carboxylic acid [2-(1-oxa-8-aza-spiro[4.5]dec-8-yl)-benzooxazol-5-yl]-amide]	0.541
O=C(Nc1ccc2oc(N3CC4(CCOCC4)C3)nc2c1)c1ccc2c(c1)CCO2 [Example 30, 2,3-Dihydro-benzofuran-5-carboxylic acid [2-(7-oxa-2-aza-spiro[3.5]non-2-yl)-benzooxazol-5-yl]-amide]	1.23
O=C(Nc1ccc2oc(N3CC4(CCCO4)C3)nc2c1)c1ccc2c(c1)CCO2 [Example 31, 2,3-Dihydro-benzofuran-5-carboxylic acid [2-(5-oxa-2-aza-spiro[3.4]oct-2-yl)-benzooxazol-5-yl]-amide]	2.17
O=C(Nc1ccc2oc(N3CC(N4CCC(O)CC4)C3)nc2c1)c1ccc2c(c1)CCO2 [Example 32, 2,3-Dihydro-benzofuran-5-carboxylic acid {2-[3-(4-hydroxy-piperidin-1-yl)-azetidin-1-yl]-benzooxazol-5-yl}-amide]	2.41
CN1CCCC2(C1)CN(c1nc3cc(NC(=O)c4ccc5c(c4)CCO5)ccc3o1)C2 [Example 33, 2,3-Dihydro-benzofuran-5-carboxylic acid [2-(6-methyl-2,6-diaza-spiro[3.5]non-2-yl)-benzooxazol-5-yl]-amide]	2.14
O=C(Nc1ccc2oc(N3CC4(CCCCO4)C3)nc2c1)c1ccc2c(c1)CCO2 [Example 34, 2,3-Dihydro-benzofuran-5-carboxylic acid [2-(5-oxa-2-aza-spiro[3.5]non-2-yl)-benzooxazol-5-yl]-amide]	1.22
O=C(Nc1ccc2oc(N3CCC34CCC4)nc2c1)c1ccc2c(c1)CCO2 [Example 35, 2,3-Dihydro-benzofuran-5-carboxylic acid [2-(1-aza-spiro[3.3]hept-1-yl)-benzooxazol-5-yl]-amide]	0.379
O=C(Nc1ccc2oc(N3CCC34CCOCC4)nc2c1)c1ccc2c(c1)CCO2 [Example 36, 2,3-Dihydro-benzofuran-5-carboxylic acid [2-(7-oxa-1-aza-spiro[3.5]non-1-yl)-benzooxazol-5-yl]-amide]	0.404
CC(C)(C)OC(=O)C1CN(c2nc3cc(NC(=O)c4ccc5c(c4)CCO5)ccc3o2)C1 [Example 37, 1-{5-[(2,3-Dihydro-benzofuran-5-carbonyl)-amino]-benzooxazol-2-yl}-azetidine-3-carboxylic acid tert-butyl ester]	0.841
O=C(Nc1ccc2oc(N3CCCC3=O)nc2c1)c1ccc2c(c1)CCO2 [Example 38, 2,3-Dihydro-benzofuran-5-carboxylic acid [2-(2-oxo-pyrrolidin-1-yl)-benzooxazol-5-yl]-amide]	1.75
O=C(Nc1ccc2oc(N3CCS(=O)(=O)CC3)nc2c1)c1ccc2c(c1)OCCO2 [Example 39, 2,3-Dihydro-benzo[1,4]dioxine-6-carboxylic acid [2-(1,1-dioxo-thiomorpholin-4-yl)-benzooxazol-5-yl]-amide]	0.444

The next lines start with the values.

IC50 [µM]	Compound
0.812	O=C(Nc1ccc2oc(N3CCS(=O)(=O)CC3)nc2c1)c1ccc2c(c1)CCCO2 [Example 40, Chroman-6-carboxylic acid [2-(1,1-dioxo-thiomorpholin-4-yl)-benzooxazol-5-yl]-amide]
2.52	CN1CCOc2ccc(C(=O)Nc3ccc4oc(N5CCS(=O)(=O)CC5)nc4c3)cc21 [Example 41, 4-Methyl-3,4-dihydro-2H-benzo[1,4]oxazine-6-carboxylic acid [2-(1,1-dioxo-thiomorpholin-4-yl)-benzooxazol-5-yl]-amide]
0.566	O=C(Nc1ccc2oc(N3CCC[C@@H](O)C3)nc2c1)c1ccc2c(c1)CCO2 [Example 42, (R)—N-(2-(3-hydroxypiperidin-1-yl)benzo[d]oxazol-5-yl)-2,3-dihydrobenzofuran-5-carboxamide]
0.541	O=C(Nc1ccc2oc(N3CCC[C@H](O)C3)nc2c1)c1ccc2c(c1)CCO2 [Example 43, 2,3-Dihydro-benzofuran-5-carboxylic acid [2-((S)-3-hydroxy-piperidin-1-yl)-benzooxazol-5-yl]-amide]
1.14	CC(C)OC1CN(c2nc3cc(NC(=O)c4ccc5c(c4)CCO5)ccc3o2)C1 [Example 44, 2,3-Dihydro-benzofuran-5-carboxylic acid [2-(3-isopropoxy-azetidin-1-yl)-benzooxazol-5-yl]-amide]
0.573	O=C(Nc1ccc2oc(N3CC[C@@H](O)C3)nc2c1)c1ccc2c(c1)CCO2 [Example 45, 2,3-Dihydro-benzofuran-5-carboxylic acid [2-((R)-3-hydroxy-pyrrolidin-1-yl)-benzooxazol-5-yl]-amide]
0.57	O=C(Nc1ccc2oc(N3CC[C@H](O)C3)nc2c1)c1ccc2c(c1)CCO2 [Example 46, 2,3-Dihydro-benzofuran-5-carboxylic acid [2-((S)-3-hydroxy-pyirolidin-1-yl)-benzooxazol-5-yl]-amide]
0.657	O=C(Nc1ccc2oc(N3CC(O)C3)nc2c1)c1ccc2c(c1)CCO2 [Example 47, 2,3-Dihydro-benzofuran-5-carboxylic acid [2-(3-hydroxy-azetidin-1-yl)-benzooxazol-5-yl]-amide]
0.448	O=C(Nc1ccc2oc(N3CCC(O)CC3)nc2c1)c1ccc2c(c1)CCO2 [Example 48, 2,3-Dihydro-benzofuran-5-carboxylic acid [2-(4-hydroxy-piperidin-1-yl)-benzooxazol-5-yl]-amide]
1.23	O=C(Nc1ccc2oc(N3CC(c4ccccc4)C3)nc2c1)c1ccc2c(c1)CCO2 [Example 49, 2,3-Dihydro-benzofuran-5-carboxylic acid [2-(3-phenyl-azetidin-1-yl)-benzooxazol-5-yl]-amide]
0.451	O=C(Nc1ccc2oc(N3CCC4(CC3)COC4)nc2c1)c1ccc2c(c1)CCO2 [Example 50, 2,3-Dihydro-benzofuran-5-carboxylic acid [2-(2-oxa-7-aza-spiro[3.5]non-7-yl)-benzooxazol-5-yl]-amide]
4.57	CCOCC1CCCN1c1nc2cc(NC(=O)c3ccc4c(c3)CCO4)ccc2o1 (centres unmarked) [Example 51, 2,3-Dihydro-benzofuran-5-carboxylic acid [2-(2-ethoxymethyl-pyrrolidin-1-yl)-benzooxazol-5-yl]-amide]
0.899	CN(CC1(F)COC1)c1nc2cc(NC(=O)c3ccc4c(c3)CCO4)ccc2o1 [Example 52, 2,3-Dihydro-benzofuran-5-carboxylic acid {2-[(3-fluoro-oxetan-3-ylmethyl)-methyl-amino]-benzooxazol-5-yl}-amide]
